# Experimental data reported in PubChem BioAssay AID1117332.
# Activity calls are given as the source filed them. No rule for the calls is given here.
# Tested on: HCT116 viability, CellTiter-Glo ATP luminescence
# Assay: cytotoxicity toward HCT116 cells – cell-based, CellTiter-Glo luminescence, IC50, dose response (AID 1117332)
row,SMILES,IC50
1,O=C1[O][Bi][O]c2ccccc21,> 20 µM (inactive)
2,O=C(O)C1(C(=O)O)CCC1.[NH2-].[NH2-].[Pt+2],> 20 µM (inactive)
3,OCCN1CCN(CC/C=C2/c3ccccc3Sc3ccc(C(F)(F)F)cc32)CC1,4.58 µM
4,Cc1ccc([N+](=O)[O-])[c]2c1[O][Hg]2,2.83 µM
5,CCCCCCCCCCCCCC[N+](C)(C)C,2.29 µM
6,CC(=O)[O][Hg][c]1ccccc1,2.8 µM
